Where no end group is shown, it is not given here. [ ]: non-standard residue; d: D form.
Columns and labels:
cytochrome c [1] = experiment: Cytochrome c peroxidase activity (Amplex Red Peroxidase Kit); format: biochemical; details: for reduction in cytochrome c peroxidase activity compared to cytochrome c exposed to chol-POPC liposomes only: 300 μM chol-POPC liposomes, cytochrome c incubated with peptide first, peptide concentration not stated (FIG. 2 range 0-300 μM); for effect on cholesterol-induced cytochrome c peroxidase activity (FIG. 2): peptide 0 μM to 300 μM, 300 μM cholesterol
Description: Cytochrome c peroxidase activity was measured using the Amplex Red Peroxidase Kit. Amplex Red reagent reacts with H2O2 in a 1:1 ratio in the presence of a peroxidase in order to create a highly fluorescent compound called resorufin, which has an excitation at 570 nm and an emission at 585 nm. 2 μM cytochrome c was incubated in 20 mM Hepes buffer pH 7.4 with varying concentrations of free cholesterol dissolved in ethanol or cholesterol-POPC liposomes (chol-POPC). 10 μM of H2O2 and 50 μM of Amplex Red reagent were subsequently added. The fluorescence was then measured using time course data collected from a Spectra Max 190 microplate spectrofluorometer (Molecular Devices, Sunnyvale, Calif.). Liposomes were prepared as previously described in Melzak et al., Langmuir, 24: 9172-9180 (2008). Chol-POPC liposomes were prepared in a 1:1 molar ratio. Stock solutions were mixed and then dried under nitrogen from 30 minutes. After resuspension in 20 mM Hepes buffer pH 7.4, the liposomes were extruded 25 times through a 50 nm pore membrane (Avestin).

cytochrome c [2] = experiment: Cytochrome c reduction by ascorbate (absorbance at 550 nm); format: biochemical; details: 100 μM chol-POPC liposomes, 20 μM cytochrome c, 50 μM vitamin C; peptide up to 300 μM
Description: Liposomes were prepared as previously described in Melzak et al., Langmuir, 24: 9172-9180 (2008). Chol-POPC liposomes were prepared in a 1:1 molar ratio. Stock solutions were mixed and then dried under nitrogen from 30 minutes. After resuspension in 20 mM Hepes buffer pH 7.4, the liposomes were extruded 25 times through a 50 nm pore membrane (Avestin). 20 μM cytochrome c in Hepes buffer pH 7.4 was contacted with varying concentrations of chol-POPC liposomes and peptide. 50 μM ascorbate (vitamin C) was added after five minutes in order to promote the reduction the cytochrome c protein. The absorbance at 550 nm was then recorded in order to obtain the rate of the reaction after treatment with varying concentrations of peptide and cholesterol using a spectrophotometer (Spectramax Gemini XPS, Molecular Devices, Sunnyvale, Calif.). (See Basova et al., 2007).

cytochrome c [3] = experiment: Circular dichroism spectroscopy of cytochrome c (Soret region); details: 100 μM peptide; 40 μM chol-POPC liposomes; 10 mM cytochrome c
Description: The circular dichroism (CD) spectra was collected using an AVIA 62 DS spectrophotometer. The CD spectra was analyzed between 375-450 nm in order to monitor the Soret region using a CD 10-mm path-length for cells containing 20 mM Hepes (pH 7.4) and […] cytochrome c in the presence or absence of 40 μM chol-POPC liposomes and/or 100 μM SS-31.
Circular dichroism (Olis DSM20 spectropolarimeter) was carried out to analyze Soret region (375-450 nm), a probe for the attachment of the Met80 residue to the heme iron. The decreased intensity of the 416 nm Cotton effect (negative Cotton peak) is indicative of a perturbed heme pocket region, as the 416 nm dichroic band serves as a readout for the Met80-Fe(III) coordination in native cytochrome c. (Santucci et al., 1997). […] The CD spectra data comports with the findings of Examples 1 and 3 because the disruption of the Fe-Met80 coordination increases the exposure of the heme Fe to H2O2, thereby causing cytochrome c to switch from an electron carrier to a peroxidase.

cytochrome c [4] = experiment: Absorbance spectrum of cytochrome c (Soret band, 350-450 nm); details: 100 μM peptide
Description: The effects of cholesterol and aromatic-cationic peptides on the structure of cytochrome c were analyzed using absorbance spectra (Pinherio et al., 1997). Wild-type cytochrome c typically has a peak at around 410 nm (which represents the Soret region) that may be affected by protein damage. Absorbance between 350-450 nm was analyzed using a Spectramax Gemini XPS spectrophotometer (Molecular Devices, Sunnyvale, Calif.).
Cholesterol-induced structural alterations of cytochrome c were also analyzed using absorption spectroscopy. The absorbance spectrum between 350 and 450 nm was analyzed so as to monitor changes to the Soret band. A Soret band with a maximum intensity at 410 nm is indicative of the presence of both axial ligands (His18 and Met80 ligated to heme iron). (Pinherio et al., 1997).

Compound | increase in cytochrome c peroxidase activity (cytochrome c [1]; 300 μM, 2 μM cytochrome c, 10 μM H2O2, 50 μM Amplex Red) [fold] | effect on cholesterol-induced impairment of cytochrome c reduction (FIG. 3B) (cytochrome c [2]) | negative Cotton peak of cytochrome c incubated with chol-POPC liposomes (CD spectra) (cytochrome c [3]) | reduction in cytochrome c peroxidase activity compared to cytochrome c exposed to chol-POPC liposomes only (cytochrome c [1]) [%] | effect on cholesterol-induced cytochrome c peroxidase activity (FIG. 2) (cytochrome c [1]; 2 μM cytochrome c) | intensity of the 410 nm absorbance peak of cytochrome c incubated with chol-POPC liposomes (cytochrome c [4])
CC(C)CCC[C@@H](C)[C@H]1CC[C@H]2[C@@H]3CC=C4C[C@@H](O)CC[C@]4(C)[C@H]3CC[C@]12C [cholesterol] | 40 | – | – | – | – | –
D-Arg-2′,6′-Dmt-Lys-Phe-NH2 [SS-31] | – | reversed | restores the negative Cotton peak | 75 | inhibit cholesterol-induced cytochrome c peroxidase activity in a dose-dependent manner | increases the intensity of the 410 nm peak
F[dR]FK-NH2 [SS-20] | – | reversed | – | 77 | inhibit cholesterol-induced cytochrome c peroxidase activity in a dose-dependent manner | –

Source: patent US20170057995A1, “USE OF AROMATIC-CATIONIC PEPTIDES TO TREAT CHOLESTEROL-INDUCED MITOCHONDRIAL DYSFUNCTION” (CORNELL UNIVERSITY, priority 2013, published 2017)
